From PMC7312353, “Lipid Raft Destabilization Impairs Mouse TRPA1 Responses to Cold and Bacterial Lipopolysaccharides” (International Journal of Molecular Sciences, 2020)

Biological target: mouse TRPA1 (mTRPA1), Transient receptor potential ankyrin 1 cation channel (Mus musculus, UniProt Q8BLA8)
Test: Fura-2 ratiometric Ca2+ imaging, concentration-response in CHO-K1 cells stably transfected with mTRPA1
Type: cell-based

Sequence of mouse TRPA1 (mTRPA1), Transient receptor potential ankyrin 1 cation channel (Q8BLA8 whole entry): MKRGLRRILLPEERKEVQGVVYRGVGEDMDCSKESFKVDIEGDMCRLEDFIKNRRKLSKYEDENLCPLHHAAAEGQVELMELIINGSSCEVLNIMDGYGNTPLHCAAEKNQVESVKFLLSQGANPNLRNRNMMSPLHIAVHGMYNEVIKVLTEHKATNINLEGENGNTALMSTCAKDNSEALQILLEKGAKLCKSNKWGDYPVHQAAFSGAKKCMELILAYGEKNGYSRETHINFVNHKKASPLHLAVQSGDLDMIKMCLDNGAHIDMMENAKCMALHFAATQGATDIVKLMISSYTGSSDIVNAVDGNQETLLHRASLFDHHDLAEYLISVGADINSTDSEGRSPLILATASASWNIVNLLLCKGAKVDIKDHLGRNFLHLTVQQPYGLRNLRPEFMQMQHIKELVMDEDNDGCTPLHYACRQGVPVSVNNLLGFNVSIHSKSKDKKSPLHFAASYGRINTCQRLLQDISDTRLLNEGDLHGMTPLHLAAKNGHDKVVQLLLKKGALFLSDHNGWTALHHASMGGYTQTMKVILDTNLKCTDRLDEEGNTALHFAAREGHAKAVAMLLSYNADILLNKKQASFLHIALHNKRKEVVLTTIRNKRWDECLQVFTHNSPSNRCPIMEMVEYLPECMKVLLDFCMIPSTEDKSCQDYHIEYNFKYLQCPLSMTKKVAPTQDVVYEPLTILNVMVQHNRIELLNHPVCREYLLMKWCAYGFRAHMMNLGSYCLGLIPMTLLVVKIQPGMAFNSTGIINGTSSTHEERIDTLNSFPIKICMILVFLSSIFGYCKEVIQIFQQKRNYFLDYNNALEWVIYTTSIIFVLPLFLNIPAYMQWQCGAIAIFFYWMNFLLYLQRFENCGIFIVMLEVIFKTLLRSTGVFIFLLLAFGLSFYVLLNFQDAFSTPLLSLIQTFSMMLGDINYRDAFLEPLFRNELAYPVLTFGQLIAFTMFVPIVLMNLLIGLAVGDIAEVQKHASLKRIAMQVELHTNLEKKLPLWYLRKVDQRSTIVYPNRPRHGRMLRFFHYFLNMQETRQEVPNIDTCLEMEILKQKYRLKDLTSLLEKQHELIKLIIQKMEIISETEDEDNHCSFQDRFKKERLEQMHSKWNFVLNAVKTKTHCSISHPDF

`C=CCN=C=S` [AITC, allyl isothiocyanate] gave an EC50 of 4.6 ± 1.1 µM.
